From patent publication US8431170B2, “Antimicrobial composition with low cytotoxicity” (Oy Granula AB Ltd., priority 2008, dated 2013)
Read-outs that look alike come from different tables or passages of the source.

Legend:
human keratinocyte cells = assay type: cell-based
[1] = Peroxide radicals capturing capacity; assay type: biochemical; conditions: pure polyphenols isolated from wood material
Description: Tables 4C and 4D further represent the free radicals capturing capacity of certain pure polyphenols and unrefined polyphenol extracts with respect to peroxide radicals. Tables 4A and 4B represent the antioxidative effect of a few pure polyphenols and of unrefined polyphenolic compounds containing raw extracts, obtained from wood bark and knotty stemwood. Tables 4C and 4D in turn illustrate the peroxide radicals capturing capacity of a few pure polyphenols and of unrefined, polyphenolic compounds containing raw extracts, obtained from wood bark and knotty stemwood. In Tables 4A-4D, it can be observed that the antioxidative and free radical capturing properties of solutions containing pure polyphenol compounds, obtained from wood material in hydrophilic extraction, are often remarkably different from the corresponding properties of compound mixtures containing unrefined raw extract solutions and obtained from wood material in hydrophilic extraction, owing to the synergetic effects of the compounds contained in the compound mixtures in unrefined extracts. The compound mixtures according to the invention are obtained from these unrefined raw extract solutions.

[2] = Antioxidative capacity: inhibition of the peroxidation of lipids; assay type: biochemical; conditions: pure polyphenols isolated from wood material
Description: In Tables 4A, 4B, 4C and 4D, there are represented antioxidative and free radical capturing effects of pure polyphenolic compounds and of unrefined polyphenolic compounds containing raw extracts obtained from wood bark and knotty stemwood. Tables 4A and 4B represent the antioxidative effect of a few pure polyphenols and of unrefined polyphenolic compounds containing raw extracts, obtained from wood bark and knotty stemwood. Tables 4C and 4D in turn illustrate the peroxide radicals capturing capacity of a few pure polyphenols and of unrefined, polyphenolic compounds containing raw extracts, obtained from wood bark and knotty stemwood. In Tables 4A-4D, it can be observed that the antioxidative and free radical capturing properties of solutions containing pure polyphenol compounds, obtained from wood material in hydrophilic extraction, are often remarkably different from the corresponding properties of compound mixtures containing unrefined raw extract solutions and obtained from wood material in hydrophilic extraction, owing to the synergetic effects of the compounds contained in the compound mixtures in unrefined extracts. The compound mixtures according to the invention are obtained from these unrefined raw extract solutions.

[3] = pure polyphenols; values marked 1: Willför et al., J. Agric. Food Chem. 51 (2003); cited from earlier work
[4] = pure polyphenols; values marked 1: Willför et al., J. Agric. Food Chem. 51, 7600-7606 (2003); cited from earlier work

Row | Molecule | Peroxide radicals capturing capacity [1] [mmol/g] | EC50 which inhibits 50% of the peroxidation of the lipids [2] [µg/mL] | EC50 which inhibits 50% of the peroxidation of the lipids [3] [µg/mL] | Peroxide radicals capturing capacity [4] [mmol/g] | also measured
1 | Cc1cc(C(C)(C)C)c(O)c(C(C)(C)C)c1 [BTH, butylated hydroxytoluene] | – | – | – | – | EC20 (limit value by which 20% of the cultivated cells died) (human keratinocyte cells; human, 24 h): 5.50 ppm; times more cytotoxic than HMR powder (human keratinocyte cells; ratio to HMR powder): 10-20 times
2 | COc1cc([C@H]2c3cc(O)c(OC)cc3C[C@@H](CO)[C@@H]2CO)ccc1O [Cyclolariciresinol] | 12 | 0.017 | – | – | –
3 | O=C1c2c(O)cc(O)cc2O[C@H](c2ccc(O)cc2)[C@H]1O [Dihydrokaempferol] | 0.78 | 0.488 | – | – | –
4 | COc1cc(C[C@H]2C(=O)OC[C@@H]2[C@H](O)c2ccc(O)c(OC)c2)ccc1O [Hydroxymatairesinol] | – | – | 0.058 | 5.6 | –
5 | COc1cc(C[C@H]2CO[C@H](c3ccc(O)c(OC)c3)[C@H]2CO)ccc1O [Lariciresinol] | – | – | 0.126 | 2.7 | –
6 | COc1cc(C[C@H]2COC(=O)[C@@H]2Cc2ccc(O)c(OC)c2)ccc1O [Matairesinol] | – | – | 0.099 | 2.9 | –
7 | Oc1ccc([C@H]2Oc3c(ccc(O)c3O)[C@@H](O)[C@H]2O)cc1O [Melacasidine] | 20 | 0.036 | – | – | –
8 | COc1cc(C[C@H]2COC(=O)[C@]2(O)Cc2ccc(O)c(OC)c2)ccc1O [Nortrachelogenin] | – | – | 0.053 | 5.9 | –
9 | O=C1C[C@@H](c2ccccc2)Oc2cc(O)cc(O)c21 [Pinosembrin] | 0.49 | 1.135 | – | – | –
10 | Oc1cc(O)cc(/C=C/c2ccccc2)c1 [Pinosylvin] | 0.78 | 0.05 | – | – | –
11 | COc1cc(C[C@@H](CO)[C@H](CO)Cc2ccc(O)c(OC)c2)ccc1O [Secoisolariciresinol] | – | – | 0.037 | 8.5 | –
12 | O=C1c2c(O)cc(O)cc2O[C@H](c2ccc(O)c(O)c2)[C@H]1O [Taxifolin] | – | – | 0.046 | 16 | –
13 | Oc1ccc([C@H]2Oc3c(ccc(O)c3O)[C@@H](O)[C@H]2O)cc1 [Teracasidine] | 7.8 | 0.05 | – | – | –
14 | Pinoresinol | 7.8 | 0.02 | – | – | –
